Results: patent publication US5684028A, “Sulphorous derivatives of imidazole, their preparation process, the new intermediates obtained, their use as medicaments and the pharmaceutical compositions” (Roussel UCLAF, priority 1990, dated 1997)

Key:
[1] = system: angiotensin II (response of the isolated portal vein); assay: Antagonistic activity of angiotensin II on the isolated portal vein; conditions: portal vein of male Wistar rats; angiotensin II 3.10^-8 M; compound 15 minutes before; 37° C.; verapamil 1.10^-6 M; read-out: IC50 (dose which produces a 50% inhibition of the response to angiotensin)
Method: The portal vein of male Wistar rats (about 350 g) (IFFA Credo France) is removed after cervical dislocation and placed rapidly in a physiological solution (see below) at ambient temperature. A ring of about 1 mm is mounted in a bath with an isolation mechanism, containing 20 ml of the following physiological solution (composition in mM: NaCl 118.3 - KCl 4.7 - MgSO4 1.2 - KH2 PO4 1.2 - NaHCO3 25 - glucose 11.1 - CaCl2 2.5), the medium is maintained at 37° C. and oxygenated with an oxygen (95%), carbon dioxide (5%) mixture. The initial pressure imposed is 1 g, the rings are left at rest for 60 to 90 minutes. In order to avoid spontaneous contractions, verapamil is added to the incubation bath (1.10^-6 M).
At the end of the rest period angiotensin II (Ciba hypertensin) 3.10^-8 M is added to the incubation bath and left in contact with the preparation for one minute. This operation is repeated every 30 minutes, the tissue being washed 3 or 4 times between two stimulations by angiotensin. The compound to be studied is introduced into the bath 15 minutes before a new stimulation by angiotensin. Increasing concentrations of the product to be studied are used and the IC50 (dose which produces a 50% inhibition of the response to angiotensin) of the product to be studied is calculated, this is expressed in nanomoles.

[2] = molecular target: T1, angiotensin II receptor (Rattus norvegicus, UniProt P25095); assay: Test on the angiotensin II receptor (displacement of I^125 angiotensin II, rat liver membranes); type: binding; conditions: 25° C., 150 minutes, read-out: IC50 (50% inhibiting concentration, displacement of specific radioactivity fixed on the receptor)
T1 construct: A fresh membrane preparation obtained from the liver of a rat is used; from tissue; host or cells: rat liver, fresh membrane preparation
T1 sequence (P25095 1-359): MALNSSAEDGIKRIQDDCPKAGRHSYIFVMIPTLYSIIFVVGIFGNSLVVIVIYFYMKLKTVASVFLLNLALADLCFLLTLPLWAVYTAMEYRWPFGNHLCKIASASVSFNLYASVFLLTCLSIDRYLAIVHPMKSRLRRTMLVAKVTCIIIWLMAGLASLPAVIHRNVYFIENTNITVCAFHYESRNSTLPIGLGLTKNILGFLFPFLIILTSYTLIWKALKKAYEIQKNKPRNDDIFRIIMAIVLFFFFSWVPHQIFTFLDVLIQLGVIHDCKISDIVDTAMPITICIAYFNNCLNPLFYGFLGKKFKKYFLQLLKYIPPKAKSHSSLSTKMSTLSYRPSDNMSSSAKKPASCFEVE
Method: 1 - Test on the angiotensin II receptor
A fresh membrane preparation obtained from the liver of a rat is used. The tissue is ground up in a polytron in a Tris 50 mM buffer pH 7.4, the grinding is followed by 3 centrifugations at 30,000 g for 15 minutes, the deposits being taken up in between in the Tris buffer pH 7.4.
The last deposits are put in suspension in an incubation buffer (Tris 20 mM, NaCl 135 mM, […], KCl 10 mM, glucose 5 mM, MgCl2 10 mM PMSF 0.3 mM, bacitracin 0.1 mM, BSA 0.2%).
Aliquoted fractions of 2 ml are divided into hemolysis tubes and I^125 angiotensin II (25,000 DPM per tube) and the product to be studied are added. (The product is first tested at 3×10^-5 M three times). When the tested product displaces by more than 50% the radioactivity linked specifically to the receptor, it is tested again according to a range of 7 doses in order to determine the dose which inhibits by 50% the radioactivity linked specifically to the receptor. In this way the 50% inhibiting concentration is determined.
The non-specific bond is determined by addition of the product of Example 94 of the European Patent 0,253,310, at 10^-5 M (three times). The medium is incubated at 25° C. for 150 minutes, put in a water bath at 0° C. for 5 minutes, filtered under vacuum, rinsed with Tris buffer pH 7.4 and the radioactivity is counted in the presence of scintillating Triton.
The result is expressed directly as the 50% inhibiting concentration (IC50), that is as the concentration of studied product, expressed in nM, necessary to displace 50% of the specific radioactivity fixed on the receptor studied.

[3] = system: angiotensin II (pressure effects); assay: Test for antagonistic activity of angiotensin II in a demedullated rat; type: in vivo; conditions: iv, demedullated male Sprague-Dawley rats, jugular vein injection 5 minutes before angiotensin II (0.75 micrograms/kg), diastolic arterial pressure, read-out: IC50 (dose which inhibits by 50% the pressure effects of angiotensin II)
Method: 3 - Test for antagonistic activity of angiotensin II in a demedullated rat
Male Sprague-Dawley rats (250 to 350 g) are anaesthetized by an intra-peritoneal injection of sodium pentobarbital (60 mg/kg). The diastolic arterial pressure is recorded by means of a heparinized catheter (PE50) introduced into the left carotid of the animal, and connected to a pressure calculator (Gould, Pressure Processor) by means of a Gould pressure sensor,
A catheter is introduced into the right jugular vein of the animal in order to allow the injection of the molecules to be studied.
The animal is placed under assisted respiration. A bilateral section of the pneumogastric nerves is carried out. The rat is then demedullated.
After a suitable period of stabilization, the study of the antagonism of the molecules vis- -vis angiotensin II (CIBA Hypertensin) is approached in the following manner:
1 - Three consecutive injections of angiotensin II (0.75 micrograms/kg) spaced 15 minutes apart permits a reproducible and stable pressure response to be obtained.
2 - While keeping a time interval of 15 minutes for the administration of angiotensin II, the molecules (0.01 to 10 mg/kg) are injected 5 minutes before the angiotensin II.
The pressure effects of angiotensin II in the presence of the antagonist are expressed as a percentage of the pressure effects of angiotensin II administered on its own. The dose which inhibits the studied effect by 50% is thus determined.
Each animal is considered to be its own control.

Row | Compound | IC50 [1] | IC50 [2] | ED50 [3]
1 | CCCCc1nc(SCc2ccccc2)c(C(=O)O)n1Cc1ccc(-c2ccccc2C(=O)O)cc1 [Example 48, 2-butyl-1-[[2'-carboxy-(1,1'-biphenyl)-4-yl]-methyl]-4-[(phenylmethyl)-thio]-1H-imidazole-5-carboxylic acid] | 0.9 nM | 5.7 nM | –
2 | CCCCc1nc(S(=O)(=O)c2ccccc2)c(C(=O)O)n1Cc1ccc(-c2ccccc2C(=O)O)cc1 [Example 26, 2-butyl-1-[[2'-carboxy-(1,1'-biphenyl)-4-yl]-methyl]-4-(phenylsulphonyl)-1H-imidazole-5-carboxylic acid] | – | 47 nM | –
3 | CCCCc1nc([S+]([O-])c2ccccc2)c(C(=O)O)n1Cc1ccc(-c2ccccc2C(=O)O)cc1 (stereo not drawn) [Example 28, 2-butyl-1-[[2'-carboxy-(1,1'-biphenyl)-4-yl]-methyl]-4-(phenylsulphinyl)-1H-imidazole-5-carboxylic acid] | – | 10.2 nM | –
4 | CCCCc1nc(SCC)c(CO)n1Cc1ccc(-c2ccccc2C(=O)O)cc1 [Example 14, 4'-[[2-butyl-4-(ethylthio)-5-(hydroxymethyl)-1H-imidazol-1-yl]-methyl]-(1,1'-biphenyl)-2-carboxylic acid] | 10 nM | – | 0.78 mg/kg
5 | CCCCc1nc(SC)c(C(=O)OCOC(=O)C(C)(C)C)n1Cc1ccc(-c2ccccc2-c2nn[nH]n2)cc1 [Example 106] | – | – | 0.04 mg/kg
6 | CCCCc1nc(S(=O)(=O)CC)c(C(=O)O)n1Cc1ccc(-c2ccccc2C(=O)O)cc1 [Example 18, 2-butyl-1-[[2'-carboxy-(1,1'-biphenyl)-4-yl]-methyl]-4-(ethylsulphonyl)-1H-imidazole-5-carboxylic acid] | – | – | 0.79 mg/kg
7 | CCCCc1nc(SC)c(C(=O)O)n1Cc1ccc(-c2ccccc2C(=O)O)cc1 [Example 22, 2-butyl-1-[[2'-carboxy-(1,1'-biphenyl)-4-yl]-methyl]-4-(methylthio)-1H-imidazole-5-carboxylic acid] | 8 nM | 49 nM | 0.47 mg/kg
8 | CCCCc1nc(S(C)(=O)=O)c(C(=O)O)n1Cc1ccc(-c2ccccc2-c2nn[nH]n2)cc1 [Example 84] | – | 0.8 nM | –
9 | CCCCc1nc(SC)c(C(=O)O)n1Cc1ccc(-c2ccccc2-c2nnn[nH]2)cc1 [Example 51, 2-butyl-4-(methylthio)-1-[[2'-(1H-tetrazol-5-yl)-(1,1'-biphenyl)-4-yl]-methyl]-1H-imidazole-5-carboxylic acid] | 0.14 nM | 1.9 nM | 0.054 mg/kg
10 | CCCCc1nc(SCC)c(C(=O)O)n1Cc1ccc(-c2ccccc2C(=O)O)cc1 [Example 6, 2-butyl-1-[[2'-carboxy-(1,1'-biphenyl)-4-yl]-methyl]-4-(ethylthio)-1H-imidazole-5-carboxylic acid] | 13 nM | – | –
11 | CCCCc1nc(SCc2ccccc2)c(CO)n1Cc1ccc(-c2ccccc2C(=O)O)cc1 [Example 74] | 2 nM | 5.8 nM | 0.34 mg/kg
12 | CCCCc1nc(S(C)(=O)=O)c(C(=O)O)n1Cc1ccc(-c2ccccc2-c2nn[nH]n2)cc1 [Example 83] | 0.21 nM | 1.3 nM | 0.022 mg/kg
13 | CCCCc1nc([S+]([O-])CC)c(C(=O)O)n1Cc1ccc(-c2ccccc2C(=O)O)cc1 (stereo not drawn) [Example 16, 2-butyl-1-[[2'-carboxy-(1,1'-biphenyl)-4-yl]-methyl]-4-(ethylsulphinyl)-1H-imidazole-5-carboxylic acid] | – | – | 0.29 mg/kg
14 | CCCCc1nc(Sc2ccccc2)c(C(=O)O)n1Cc1ccc(-c2ccccc2-c2nn[nH]n2)cc1 [Example 92] | – | 0.5 nM | 0.08 mg/kg
15 | CCCCc1nc(SCc2ccc(OC)cc2)c(C(=O)O)n1Cc1ccc(-c2ccccc2C(=O)O)cc1 [Example 70] | 0.56 nM | 3.6 nM | 0.33 mg/kg
16 | CCCCc1nc(Sc2ccccc2)c(C(=O)O)n1Cc1ccc(-c2ccccc2C(=O)O)cc1 [Example 20, 2-butyl-1-[[2'-carboxy-(1,1'-biphenyl)-4-yl]-methyl]-4-(phenylthio)-1H-imidazole-5-carboxylic acid] | 5 nM | 17 nM | –
